# In paper PMC6261997, “Synergistic enzymatic and bioorthogonal reactions for selective prodrug activation in living systems” (Nature Communications, 2018):
# Read-outs that look alike come from different tables or passages of the source.
# Experiments:
# HeLa cells = assay: MTT cell viability / cytotoxicity assay, HeLa cells; assay type: cell-based; conditions: for EC50: Homo sapiens, HeLa
# Method: (§1) Cells were plated in flat-bottom 96-well plates at a density of 3 × 10^3 cells per well. After 12 h of cell attachment, the cell culture medium was replaced with 100 μL of pre-warmed media containing the compounds at different concentrations. After 24–72 h of incubation, cell proliferation was assessed by the MTT assay. A fresh mixture of 10 μL of thiazolyl blue tetrazolium bromide (MTT) and 90 μL of medium were freshly added to each well. After incubation for 4 h, the medium was gently removed. The formazan crystals that formed were dissolved in 110 μL of DMSO, and the absorbance was subsequently measured with a plate reader (Perkin Elmer) at 490 nm. EC50 values were calculated using Origin software. To measure the cytotoxicity of 2, HeLa cells, HUVECs, Saos-2 cells and CCC-HEH-2 cells were incubated with 100 μL of 1–500 μM 2 for 24 h, and then, cell viability was determined. To measure the cytotoxicity of TCO-Dox or Dox, HeLa cells, HUVECs, Saos-2 cells or CCC-HEH-2 cells were incubated with 200 μL of 0.001–10 μM TCO-Dox or Dox for 72 h, and the cell viability was determined. To determine the cytotoxicity of activated Dox, HeLa cells, HUVECs, […], and then, 2 was removed and 200 μL of 0.0001–10 μM TCO-Dox was added for 72 h of incubation, and cell viability was determined. […]
# (§2) Prodrug activation efficacy in cells: Cells were plated on flat bottom 96-well plates at a
# (§3) density of 3x10^3 cells per well. After 12 h attachment, cells were incubated with 100 µL
# (§4) 500 µM of 2 for 6 h before removing 2 and the addition of 200 µL 0.0001-10 µM of […]
# Saos-2 cells = assay: MTT cell viability / cytotoxicity assay, Saos-2 cells; assay type: cell-based
# Method: (§5) Cells were plated in flat-bottom 96-well plates at a density of 3 × 10^3 cells per well. After 12 h of cell attachment, the cell culture medium was replaced with 100 μL of pre-warmed media containing the compounds at different concentrations. After 24–72 h of incubation, cell proliferation was assessed by the MTT assay. A fresh mixture of 10 μL of thiazolyl blue tetrazolium bromide (MTT) and 90 μL of medium were freshly added to each well. After incubation for 4 h, the medium was gently removed. The formazan crystals that formed were dissolved in 110 μL of DMSO, and the absorbance was subsequently measured with a plate reader (Perkin Elmer) at 490 nm. EC50 values were calculated using Origin software. To measure the cytotoxicity of 2, HeLa cells, HUVECs, Saos-2 cells and CCC-HEH-2 cells were incubated with 100 μL of 1–500 μM 2 for 24 h, and then, cell viability was determined. To measure the cytotoxicity of TCO-Dox or Dox, HeLa cells, HUVECs, Saos-2 cells or CCC-HEH-2 cells were incubated with 200 μL of 0.001–10 μM TCO-Dox or Dox for 72 h, and the cell viability was determined. To determine the cytotoxicity of activated Dox, HeLa cells, HUVECs, Saos-2 cells or CCC-HEH-2 cells were pre-incubated with 100 μL of 500 μM 2 for 6 h, and then, 2 was removed and 200 μL of 0.0001–10 μM TCO-Dox was added for 72 h of incubation, and cell viability was determined. […]
# Prodrug activation efficacy in cells: Cells were plated on flat bottom 96-well plates at a density of 3x10^3 cells per well. After 12 h attachment, cells were incubated with 100 µL 500 µM of 2 for 6 h before removing 2 and the addition of 200 µL 0.0001-10 µM of TCO-Dox. Cells were further incubated for 72 h before measuring the viability by the MTT […]
# Clonogenic assay of cells in vitro: Clonogenic assay was performed according to the standard protocol.6 2×10^5 attached cells were treated with 500 µM of 2 for 6 h in culture dishes. Cells were then detached, re-suspended in cultural medium and counted accurately. The cell suspension was diluted into the desired seeding concentration and cells were seeded in 6-well plates at a density of 200 cells per well for CCC-HEH-2 and 400 cells per well for HeLa, Saos-2 and HUVECs. After incubation for 10 days, the cultural medium was removed and cells were rinsed carefully with PBS. 2 mL of a mixture of 6.0% (vol/vol) glutaraldehyde and 0.5% (wt/vol) crystal violet was added and kept for 30 min.
# The glutaraldehyde crystal violet mixture was removed carefully. The colonies were rinsed with water and dried in normal air at room temperature. The number of the colonies was counted using a stereomicroscope.
# When untreated cells are plated as a single-cell suspension at low densities, they will grow to colonies. The plating efficiency (PE) is the ratio of the number of colonies to the […]
# (Supplementary Equation 1)
# The number of colonies that arise after treatment of cells, expressed in terms of PE, is called the surviving fraction (SF): […]
# CCC-HEH-2 cells = assay: MTT cell viability / cytotoxicity assay, CCC-HEH-2 cells; assay type: cell-based; conditions: Homo sapiens, read-out: EC50, CCC-HEH-2
# Method: as §5
# HUVECs = assay: MTT cell viability / cytotoxicity assay, HUVECs; assay type: cell-based; conditions: for EC50: Homo sapiens, HUVEC
# Method: as §1, §2, §3, §4
# [1] = In vitro decaging of TCO-Dox by 2 (UPLC-MS); conditions: TCO-Dox mixed with 2 in 25% acetonitrile in H2O, 37 °C
# Method: The Tz counterpart prodrug TCO-Dox was prepared according to previously published procedures using the axial tautomer of TCO[27]. After the selection of optimized Tz and TCO, the decaging reactions in our study were further characterized (Fig. 2d). After mixing 2 μL of 10 mM TCO-Dox with 2.5 μL of 20 mM 2 in 25% acetonitrile in H2O at 37 °C, the reaction mixture was analysed by ultra-performance liquid chromatography-mass spectrometry (UPLC-MS) at different time points. […] Similarly, we prepared TCO-caged coumarin (TCO-CMR, see Supplementary Methods for a detailed synthesis protocol)[23]. According to a previously developed fluorescence liberation, the fluorescence of coumarin was restored rapidly in the presence of Tz derivatives (Supplementary Fig. 6).
# [2] = UPLC-MS/MS pharmacokinetic analyses in tumour, liver and plasma; assay type: in vivo, BALB/c nude mice; conditions: i.v. 30 mg kg-1 TCO-Dox
# Method: For in vivo prodrug activation, mice received an i.v. injection of 50 mg kg^−1 2 and a subsequent 30 mg kg^−1 TCO-Dox after a 2-h interval. After different time intervals, blood samples were collected from the tail veins, and then, the tumours and livers were harvested for UPLC-MS/MS analysis.
# UPLC-MS/MS analyses: UPLC-MS/MS metabolomic analyses were performed using a
# multiple reaction-monitoring mode (MRM). Data acquisition and processing were performed using LabSolutions version 5 software. Measurements were carried out at
# Dox, solvent A consisted of 0.1% formic acid in water and solvent B consisted of 0.1% formic acid in mass spectrometric grade acetonitrile; (2) for compound TCO-Dox, solvent A consisted of 100% water and solvent B consisted of 100% mass spectrometric grade acetonitrile. Injection volume was 2 or 10 L. The mass spectrometer was interfaced with the liquid chromatograph using an electrospray ion source. The nitrogen nebulizing gas flow was set at 10 L min-1 and the drying gas flow at 15 mL min-1. 4500 V were used for the interface voltage. The temperature of the block heater was maintained at 400 °C and the one of the desolvation line at 250 °C. The MRM transitions were
# Dox. The collision gas used was argon at 230 kPa. The dwell time was set to 100 msec and the pause time to 3 msec.
# Sample preparation: blood samples were collected from the tail vein of mice. Plasma […]
# HeLa tumours = assay: Tumour inhibition test, subcutaneous HeLa xenograft; assay type: in vivo, BALB/c nude mice
# Method: All animal studies were performed in accordance with the Institutional Animal Use and Care Regulations approved by the National Institutes of Health Clinical Center/Animal Care and Use Committee (NIH CC/ACUC). Athymic female nude mice (5–6 weeks old) were purchased from Beijing Huafukang Bioscience Co., Ltd., and raised in a specific-pathogen-free barrier facility. Tumour-bearing mice were established by subcutaneously injecting a suspension of 10^6 HeLa cells per mouse into the front flank of each nude mouse.
# After 14 days, the mice were sacrificed.
smiles,measurement,setting,value
COc1cccc2c1C(=O)c1c(O)c3c(c(O)c1C2=O)CC(O)(C(=O)CO)CC3OC1CC(NC(=O)OC2C=CCCCCC2)C(O)C(C)O1 (stereo not shown) [TCO-Dox],"EC50 higher than that of Dox, HeLa cells",HeLa cells; 72 h,~10 fold
same,EC50,"HeLa cells; read-out: EC50, HeLa, 72 h cytotoxicity, MTT, Activated Dox: cells pre-incubated with 500 μM 2 for 6 h, then TCO-Dox 72 h",6.79 µM
same,EC50,"HeLa cells; read-out: EC50 against HeLa cells, cells pre-incubated with 300 μM 2 for 6 h, then TCO-Dox 72 h",1.2 µM
same,EC50,"HeLa cells; read-out: EC50 against HeLa cells, cells pre-incubated with 500 μM 2 for 6 h, then TCO-Dox 72 h",0.0298 µM
same,EC50 against HeLa cells with 300 μM 2 higher than with 500 μM 2,"HeLa cells; pre-incubation 6 h, then TCO-Dox 72 h",approximately 40 fold
same,EC50 ratio CCC-HEH-2/HeLa,HeLa cells; ratio of 72 h EC50 values,0.908
same,EC50 ratio HUVECs/HeLa,HeLa cells; ratio of 72 h EC50 values,0.855
same,EC50,"Saos-2 cells; Homo sapiens, SAOS-2, read-out: EC50, Saos-2",7.57 µM
same,EC50 ratio CCC-HEH-2/Saos-2,Saos-2 cells; ratio of 72 h EC50 values,0.815
same,EC50 ratio HUVECs/Saos-2,Saos-2 cells; ratio of 72 h EC50 values,0.767
same,EC50,CCC-HEH-2 cells,6.17 µM
same,"EC50 higher than that of Dox, HUVECs",HUVECs; 72 h,more than 40 fold
same,EC50,"HUVECs; read-out: EC50, HUVECs, 72 h cytotoxicity, MTT, Activated Dox: cells pre-incubated with 500 μM 2 for 6 h, then TCO-Dox 72 h",5.81 µM
same,EC50,"HUVECs; read-out: EC50 against HUVECs, cells pre-incubated with 300 μM 2 for 6 h, then TCO-Dox 72 h",0.367 µM
same,EC50,"HUVECs; read-out: EC50 against HUVECs, cells pre-incubated with 500 μM 2 for 6 h, then TCO-Dox 72 h",0.272 µM
same,time to complete liberation of Dox,[1],≤ 2 min
same,concentration of TCO-Dox in plasma,[2],relatively high concentration of TCO-Dox remaining in the blood
same,histological examination of dissected tumours (HE staining),HeLa tumours; after treatment for 14 days,the HeLa cells remained normal
same,tumour growth,"HeLa tumours; i.v., three courses (day 0, 3, 6), 50 mg kg^−1 2, 30 mg kg^−1 TCO-Dox, 5 mg kg^−1 Dox, or 50 mg kg^−1 2 then 30 mg kg^−1 TCO-Dox after 2 h",rapid growth similar to that observed in the saline control group
